By EC50 is commonly meant the concentration at which the effect is half-maximal.

For this assay, the system named is ATF4 luciferase reporter (human full-length ATF4 5'-UTR fused to firefly luciferase) in HEK293T cells. Put plainly: ATF4-Luc assay (in vitro model of VWMD): HEK293T cells carrying ATF4 luciferase reporter, tunicamycin-treated. Type of assay: cell-based. To be noted: Homo sapiens, HEK-293T, 1 μg/mL tunicamycin, 7 hours, One Glo luminescence. The protocol:
In order to test exemplary compounds of the invention in a cellular context, a stable VWMD cell line was first constructed. The ATF4 reporter was prepared by fusing the human full-length ATF4 5′-UTR (NCBI Accession No. BC022088.2) in front of the firefly luciferase (FLuc) coding sequence lacking the initiator methionine as described in Sidrauski et al (eLife 2013). The construct was used to produce recombinant retroviruses using standard methods and the resulting viral supernatant was used to transduce HEK293T cells, which were then subsequently selected with puromycin to generate a stable cell line.
HEK293T cells carrying the ATF4 luciferase reporter were plated on polylysine coated 384-well plates (Greiner Bio-one) at 30,000 cells per well. Cells were treated the next day with 1 μg/mL tunicamycin and 200 nM of a compound of Formula (I) for 7 hours. Luminescence was measured using One Glo (Promega) as specified by the manufacturer. Cells were maintained in DMEM with L-glutamine supplemented with 10% heat-inactivated FBS (Gibco) and Antibiotic-Antimycotic solution (Gibco).
Table 2 below summarizes the EC50 data obtained using the ATF4-Luc assay for exemplary compounds of the invention.
On the technique in general: In a reporter assay the amount or activity of a reporter protein is the signal.
On to `O=C(COc1ccc(Cl)c(F)c1)NC12CC(NC(=O)[C@@H]3C[C@@H](O)c4cc(Cl)ccc4O3)(C1)C2` [Compound 198, (2S,4R)-6-chloro-N-{3-[2-(4-chloro-3-fluorophenoxy)acetamido]bicyclo[1.1.1]pentan-1-yl}-4-hydroxy-3,4-dihydro-2H-1-benzopyran-2-carboxamide], for which the concentration giving a half-maximal response (EC50) is below 10 nM.
Take `O=C(COc1ccc(Cl)c(F)c1)NC12CC(NC(=O)[C@H]3C[C@@H](O)c4ccccc4O3)(C1)C2` [Compound 267, (2R,4R)—N-{3-[2-(4-chloro-3-fluorophenoxy)acetamido]bicyclo[1.1.1]pentan-1-yl}-4-hydroxy-3,4-dihydro-2H-1-benzopyran-2-carboxamide]: the concentration giving a half-maximal response (EC50) lay in the range of 10 to 50 nM.
For the compound `O=C(COc1ccc(Cl)c(F)c1)NC12CC(NC(=O)C3CC(NCCO)c4cc(Cl)ccc4O3)(C1)C2` (centres unmarked) [Compound 188, 6-chloro-N-{3-[2-(4-chloro-3-fluorophenoxy)acetamido]bicyclo[1.1.1]pentan-1-yl}-4-[(2-hydroxyethyl)amino]-3,4-dihydro-2H-1-benzopyran-2-carboxamide], the EC50 was 10 to 50 nM.
In the case of `O=C(COc1ccc(Cl)c(Cl)c1)NC12CC(NC(=O)[C@H]3CC(=O)c4cc(F)c(F)cc4O3)(C1)C2` [Compound 207E, (2R)—N-{3-[2-(3,4-dichlorophenoxy)acetamido]bicyclo[1.1.1]pentan-1-yl}-6,7-difluoro-4-oxo-3,4-dihydro-2H-1-benzopyran-2-carboxamide], the EC50 is below 10 nM.
Under `C[C@]1(O)C[C@@H](C(=O)NC23CC(NC(=O)COc4ccc(Cl)c(F)c4)(C2)C3)Oc2ccc(Cl)cc21` (single isomer, unassigned) [Compound 237] stands below 10 nM; under `COC(C)(C)CN1C[C@@H](C(=O)NC23CC(NC(=O)COc4ccc(Cl)c(F)c4)(C2)C3)Oc2ccc(Cl)cc21` [Compound 191, (2S)-6-chloro-N-{3-[2-(4-chloro-3-fluorophenoxy)acetamido]bicyclo[1.1.1]pentan-1-yl}-4-(2-methoxy-2-methylpropyl)-3,4-dihydro-2H-1,4-benzoxazine-2-carboxamide], 500 to 2000 nM; under `O=C(COc1ccc(Cl)c(F)c1)NC12CCC(NC(=O)[C@H]3C[C@@H](O)c4cc(Cl)ccc4O3)(C1)C2` [Compound 256, (2R,4R)-6-chloro-N-{4-[2-(4-chloro-3-fluorophenoxy)acetamido]bicyclo[2.1.1]hexan-1-yl}-4-hydroxy-3,4-dihydro-2H-1-benzopyran-2-carboxamide], below 10 nM.
Next, `O=C(COc1ccc(Cl)c(F)c1)NC12CC(NC(=O)[C@H]3C[C@H](NCCO)c4cc(Cl)ccc4O3)(C1)C2` (racemic) [Compound 301, rac-(2R,4S)-6-chloro-N-{3-[2-(4-chloro-3-fluorophenoxy)acetamido]bicyclo[1.1.1]pentan-1-yl}-4-[(2-hydroxyethyl)amino]-3,4-dihydro-2H-1-benzopyran-2-carboxamide]: below 10 nM; `CN1c2ccc(Cl)cc2CC1C(=O)NC12CC(NC(=O)COc3ccc(Cl)c(F)c3)(C1)C2` (centres unmarked) [Compound 266, 5-chloro-N-{3-[2-(4-chloro-3-fluorophenoxy)acetamido]bicyclo[1.1.1]pentan-1-yl}-1-methyl-2,3-dihydro-1H-indole-2-carboxamide]: 50 to 250 nM; `O=C(COc1ccc(Cl)c(F)c1)NC12CC(NC(=O)[C@H]3C[C@@H](O)c4cc(F)c(Cl)cc4O3)(C1)C2` (single isomer, unassigned) [Compound 206]: below 10 nM.
Next, `Cc1ccc2c(=O)cc(C(=O)NC34CC(NC(=O)COc5ccc(Cl)c(F)c5)(C3)C4)oc2c1` [Compound 284, N-{3-[2-(4-chloro-3-fluorophenoxy)acetamido]bicyclo[1.1.1]pentan-1-yl}-7-methyl-4-oxo-4H-1-benzopyran-2-carboxamide]: 10 to 50 nM.

These data come from patent US20240018133A1, “MODULATORS OF THE INTEGRATED STRESS PATHWAY” (Calico Life Sciences LLC, priority 2019, published 2024).
